“Also recorded” adds a separate entry of the source. Like-named read-outs stand apart in the source and are kept apart here. Marks after values point to notes of the source that are not given here.
What was measured:
[1] = test system: CD4- and gp120-mediated cell fusion; test: cells; type: cell-based
[2] = cynomolgus monkey, up to 236 ug/mL
HIV-1 = conditions: 3.0 mg/kg every other day, 14-day treatment, three patients
[3] = type: in vivo, cynomolgus monkeys
Procedure: Dosing. Twelve experimentally naive cynomolgus monkeys were assigned to four groups of three animals each. Prior to dosing, each animal was lightly sedated with a combination of ketamine (1 0 mg/kg) and diazepam (0.5 mg/kg), and a catheter was introduced into the femoral artery for recording central arterial pressure. Monkeys were given a single intravenous infusion of 5, 20, or 50 mg AR177/kg or saline over ten minutes through a cephalic vein catheter using a Harvard infusion pump. Arterial blood samples were drawn at −10, +10, +20, +40, +60 and +120 minutes relative to the initiation of infusion into EDTA-containing tubes for hematology, complement factors, coagulation assay, serum chemistry, and plasma AR177 determination. At 24 hours post-infusion, blood was drawn via the femoral vein into EDTA-containing tubes for these same parameters. The concentration of AR177 in dosing solutions was confirmed post experiment by absorbance at 280 nm on a spectrophotometer. For the determination of AR177 by HPLC, the plasma fraction was obtained by low speed centrifugation of blood, and stored at −20° C. until used. Electrocardiograms (ECGs), central pressure, and heart rate were recorded continuously for 120 minutes following the initiation of doing. Table E-1 summarizes the study design. The animals were observed twice daily pharmacotoxic signs and general health beginning two days before dosing and for seven days following dosing. The monkeys were not necropsied at the end of the study.

[4] = test system: Vesicular Stomatitis virus
[5] = target: T1, HIV-1 integrase catalytic core IN50-212 (Human immunodeficiency virus type 1 group M subtype B, UniProt P12497); test: Disintegration assay, IN50-212; type: biochemical; conditions: IN50-212, 3 μM
T1 construct: purchased gift of Drs; T. Jenkins and R. Craigie, NIDDK, NIH (not bought)

HIV-1IIIB = test: Long term suppression assay, MT-4 cells; type: cell-based
[6] = Thermal denaturation of oligomer fold (UV, Tm); type: physicochemical
[7] = parameters: species or system cynomolgus monkeys; conditions: cynomolgus monkey, in vivo
Procedure: Hematology and coagulation parameters. Hematology and coagulation parameters were determined 9-11 days prior to the start of the study, just prior to administering doses 1 (day 1) and 12 (day 23), five minutes after dosing (coagulation only), 30 minutes and 4 hours following dosing, one day after the 12th dose (day 24), and in recovery monkeys at sacrifice (day 37). The following were determined: red blood cell count and morphology, total and differential while blood cells, hemoglobin, hematocrit, prothrombin time, fibrinogen, mean cell hemoglobin, mean corpuscular volume, mean corpuscular hemoglobin concentration, platelet count, activate partial thromboplastin time, and D-dime. Hematology was determined at Sierra Nevada Laboratories (Reno, Nev.).

MT2 = type: cell-based, human
Procedure: (§1) Cytotoxicity Analysis. The cytotoxicity of T30177 was assayed as described above. […] The degree of cell proliferation was determined according to the manufacturer's instructions.
(§2) Cytotoxicity Assays. The cytotoxicity of T30177 was determined using several different cell lines and primary human cells as described above. The cytotoxicity profile obtained for log phase growing cells was variable depending upon the cell line used, while the slower growing PBMCs, PBLs, and macrophages all tolerated the compound at concentrations exceeding 100 μM as monitored using the trypan blue exclusion, [^3H]thymidine uptake, or [^3H]leucine uptake techniques.

CEM-SS = type: cell-based, human
Procedure: as §1, §2

MT4 = type: cell-based, human
Procedure: as §1, §2

U937 = type: cell-based, human
Procedure: as §1, §2

AA5 = type: cell-based, human
Procedure: as §1, §2

CEMx174 = type: cell-based, human
Procedure: as §1, §2

Substance: 5′-gtggtgggtgggtgggt-3′ [T30177] (GTGGTGGGTGGGTGGGT; phosphorothioate termini, further chemistry not given here) [pPT version of parent compound I100-15, 17 mer]
- fusion IC50 relative to virus infection assay IC50 [1]: approximately 100 fold
- IC50 ([1]; read-out: IC50 CD4- and gp120-mediated cell fusion): 1 µM
- complement CH50 [2]: no effect
- viral load (plasma HIV-1 RNA) (HIV-1): viral load was significantly reduced
- IC50 virus-induced cytopathogenicity (Sindbis virus; Sindbis virus): >200 µg/mL
- MCC minimum concentration altering normal cell morphology (Sindbis virus; Sindbis virus assay): ≧200 μg/mL
- Body Weights (2.5 mg/kg, Day 7): 3.1 ± 0.6
- Body Weights (2.5 mg/kg, Day 14): 3.2 ± 0.6
- Body Weights (2.5 mg/kg, Day 21): 3.2 ± 0.6
- Body Weights (2.5 mg/kg, Day 25): 3.1 ± 0.6
- Body Weights (2.5 mg/kg, Prestudy): 3.1 ± 0.5
- Body Weights (10 mg/kg, Day 7): 3.2 ± 0.7
- Body Weights (10 mg/kg, Day 14): 3.3 ± 0.7
- Body Weights (10 mg/kg, Day 21): 3.3 ± 0.7
- Body Weights (10 mg/kg, Day 25): 3.2 ± 0.7
- Body Weights (10 mg/kg, Prestudy): 3.2 ± 0.7
- treatment-related clinical sign (40 mg/kg): discoloration around the eyes in three high-dose animals
- Body Weights (40 mg/kg, Day 7): 3.2 ± 0.6
- Body Weights (40 mg/kg, Day 14): 3.3 ± 0.6
- Body Weights (40 mg/kg, Day 21): 3.2 ± 0.6
- Body Weights (40 mg/kg, Day 25): 3.1 ± 0.6
- Body Weights (40 mg/kg, Prestudy): 3.2 ± 0.6
- mortality (2.5, 10, 40 mg/kg every other day, 12 doses): No animals died
- body weight (12 doses): no effects on body weight
- ECG recordings (cynomolgus monkey, in vivo): No abnormalities
- emesis during the infusion ([3]; 20 mg/kg): all of the monkeys
- emesis during the infusion ([3]; 50 mg/kg): two of the three animals
- blood pressure, heart rate, electrocardiographic activity ([3]; 5, 20, 50 mg/kg): No clearly treatment-related changes
- mortality ([3]; up to 50 mg/kg): no animals died

Substance: 5′-gtggtgggtgggtgggt-3′ (GTGGTGGGTGGGTGGGT; phosphorothioate termini, further chemistry not given here) [T30177, pPT version of parent compound I100-15, 17 mer]
- IC50 virus-induced cytopathogenicity ([4]; Vesicular Stomatitis virus): >200 µg/mL
- MCC minimum concentration altering normal cell morphology ([4]; Vesicular Stomatitis virus assay): 400 μg/mL
- inhibition of disintegration [5]: ≤ 30%
- viral DNA (PCR) 11 days after removal of drug (HIV-1IIIB): unable to detect the presence of viral DNA; also recorded: no detectable viral cDNA
- protection of treated cells from reinfection with HIV-1IIIB (HIV-1IIIB; 100-fold over IC50, 4 days): no protection of cells from the second round of viral infection
- Tm ([6]; 1 mM KCl): 53 °C
- Tm ([6]; 10 mM KCl, calculated from linear fit): 70* ° C.
- Tm ([6]; 180 mM KCl, calculated from linear fit): 92* ° C.
- eosinophils [7]: acute decrease in eosinophils
- lymphocytes [7]: acute and transient increase in lymphocytes
- CC50 (MT2): 61.2 ± 5.5 µM
- TC25 (MT2): 27 ± 3.5 µM
- TC95 (MT2): >100 µM
- CC50 (CEM-SS): 92 ± 3 µM
- TC25 (CEM-SS): 50.8 ± 3.2 µM
- TC95 (CEM-SS): >100 µM
- CC50 (MT4): 70 ± 7.1 µM
- TC25 (MT4): 34 ± 4.0 µM
- TC95 (MT4): >100 µM
- CC50 (U937): > 100 µM
- TC25 (U937): >100 µM
- TC95 (U937): >100 µM
- CC50 (AA5): 94.2 ± 3.1 µM
- TC25 (AA5): 45.66 ± 2.0 µM
- TC95 (AA5): >100 µM
- CC50 (CEMx174): 50 ± 5.2 µM
- TC25 (CEMx174): 10 ± 2.5 µM
- TC95 (CEMx174): >100 µM

From patent US6355785B1, “Guanosine-rich oligonucleotide integrase inhibitors” (Aronex Pharmaceuticals, Inc., priority 1993, dated 2002)
